Laboratory results published in paper PMC7432809, “Antimicrobial Activity of Small Synthetic Peptides Based on the Marine Peptide Turgencin A: Prediction of Antimicrobial Peptide Sequences in a Natural Peptide and Strategy for Optimization of Potency” (International Journal of Molecular Sciences, 2020).
Where a SMILES comes first, the peptide text is derived from it. Bridges are numbered along the chain shown (N, C = ends).

What was measured:
Bacillus megaterium = assay: microbe, parasite or virus in culture; format: cell-based; details: Bacillus megaterium; MH medium, 24 h at 35 °C, OD 595 nm <10% of growth control; triplicates
Procedure: (§1) The synthesized peptides were screened for antibacterial activity against five strains of G+ bacteria: B. subtilis (Bs, ATCC 23857), C. glutamicum (Cg, ATCC 13032), S. aureus (Sa, ATCC 9144), Micrococcus luteus (Ml), B. megaterium (Bm) (the last two were obtained from professor Olaf B. Styrvold, UiT The Arctic University of Norway).
(§2) Two strains of G- bacteria, P. aeruginosa (Pa, ATCC 27853) and E. coli (Ec, ATCC 25922), were also used. Cultures stored at -80 °C in glycerol were transferred to Müller–Hinton plates (MH, Difco Laboratories, Detroit, MI, USA) and incubated for 24 h at 35 °C. Colonies of each strain were transferred to 5 mL liquid MH medium and left shaking (600 rpm) at room temperature overnight. An aliquot of actively growing bacteria (20 µL) was inoculated in 5 mL MH medium and left shaking for 2 h at room temperature. In order to have a sensitive bioassay, the bacterial cultures were diluted with medium to only 2.5–3 × 10^4 bacteria/mL and an aliquot of 50 µL was added to each well in 96 microwell plates (Thermo Fisher Scientific, Roskilde, Denmark) preloaded with peptide solution (50 µL). The antibacterial assays were performed as previously described. The microtiter plates were incubated for 24 h at 35 °C with optical density (595 nm) recorded every hour using an Envision 2103 multilabel reader, controlled by a Wallac Envision manager (PerkinElmer, Waltham, MA, USA). The minimum inhibitory concentration (MIC) was defined as the sample concentration showing an optical density less than 10% of the negative (growth) control, consisting of bacteria and MQ-H2O. Oxytetracycline (concentrations ranging from 20–0.02 µg/mL, Sigma-Aldrich) and indolicidin (concentration ranging from 200–0.2 µg/mL, Sigma-Aldrich) served as a positive (inhibition) control. The synthetic peptides were tested for antibacterial activity in concentrations ranging from 250 to 0.5 µg/mL in two-fold dilutions. All tests were performed in triplicates.

Micrococcus luteus = assay: microbe, parasite or virus in culture; format: cell-based; details: Micrococcus luteus; MH medium, 24 h at 35 °C, OD 595 nm <10% of growth control; triplicates
Procedure: as §1, §2

Aureobasidium pullulans = assay: microbe, parasite or virus in culture; format: cell-based; details: potato dextrose broth with 2% glucose, room temperature 48 h, OD 600 nm, >90% inhibition; triplicate
Procedure: (§3) StAMP-1–11 were screened for antifungal activity against C. albicans (Ca, ATCC 10231), A. pullulans (Ap) and Rhodotorula sp. (Rh) (the last two were obtained from professor Arne Tronsmo, The Norwegian University of Life Sciences, Ås, Norway). The antifungal assay was performed as previously described with a few modifications. Briefly, fungal spores were dissolved in potato dextrose broth (Difco Laboratories) with 2% D(+)-glucose (Merck, Darmstadt, Germany) to a concentration of 4 × 10^5 spores/mL. The spores (50 µL) were inoculated on 96 microwell plates (Thermo Fisher Scientific) containing the synthetic peptides (50 µL) and controls (water or antibiotic). The peptides were diluted in MQ-H2O at final concentrations ranging from 250–3.9 µg/mL in two-fold serial dilutions. Triclosan (Sigma-Aldrich, Steinheim, Germany) was used as a positive (antifungal) control (32–0.25 µg/mL), and MQ-H2O as a negative (growth) control. Cultures were grown in room temperature for 24 h (Ca) and 48 h (Ap and Rh). Growth inhibition was determined by measuring OD values at 600 nm by a microplate reader (Synergy H1 Hybrid Multi-Mode Reader, BioTek, Winooski, VT, USA). […] All experiments were done in triplicate.

[1] = system: Candida albicans (ATCC 10231); assay: microbe, parasite or virus in culture; format: cell-based; details: potato dextrose broth with 2% glucose, room temperature 24 h, OD 600 nm, >90% inhibition; triplicate
Procedure: as §3

Rhodotorula sp. = assay: microbe, parasite or virus in culture; format: cell-based; details: potato dextrose broth with 2% glucose, room temperature 48 h, OD 600 nm, >90% inhibition; triplicate
Procedure: as §3

[2] = system: Bacillus subtilis (ATCC 23857); details: turgencin A data ref Hansen et al. [24]; cited from earlier work
Source text: Table 3 Antimicrobial activities of turgencin A and the synthesized StAMP-1–11 peptides. | column: Gram-Pos / Bs

[3] = system: Corynebacterium glutamicum (ATCC 13032); details: turgencin A data ref Hansen et al. [24]; cited from earlier work
Source text: Table 3 Antimicrobial activities of turgencin A and the synthesized StAMP-1–11 peptides. | column: Gram-Pos / Cg

[4] = system: Staphylococcus aureus (ATCC 9144); details: turgencin A data ref Hansen et al. [24]; cited from earlier work
Source text: Table 3 Antimicrobial activities of turgencin A and the synthesized StAMP-1–11 peptides. | column: Gram-Pos / Sa

[5] = system: Escherichia coli (ATCC 25922); details: turgencin A data ref Hansen et al. [24]; cited from earlier work
Source text: Table 3 Antimicrobial activities of turgencin A and the synthesized StAMP-1–11 peptides. | column: Gram-Neg / Ec

[6] = system: Pseudomonas aeruginosa (ATCC 27853); details: turgencin A data ref Hansen et al. [24]; cited from earlier work
Source text: Table 3 Antimicrobial activities of turgencin A and the synthesized StAMP-1–11 peptides. | column: Gram-Neg / Pa

CSCC[C@@H]1NC(=O)[C@H](CCCCN)NC(=O)[C@@H](NC(=O)[C@H](C)NC(=O)[C@H](C)NC(=O)[C@H](CCCCN)NC(=O)[C@@H](NC(=O)[C@H](CCCCN)NC(=O)[C@@H]2CCCN2C(=O)CN)[C@@H](C)O)CSSC[C@@H](C(=O)N[C@@H](CC(=O)O)C(=O)N[C@@H](C)C(=O)N[C@H](C(N)=O)C(C)C)NC(=O)CNC(=O)[C@H](CC(C)C)NC(=O)[C@H](CCC(=O)O)NC(=O)[C@@H]2CSSC[C@H](NC(=O)[C@H](C)NC1=O)C(=O)N[C@@H](CCCCN)C(=O)N[C@@H](CC(C)C)C(=O)N[C@@H](C)C(=O)N[C@@H]([C@@H](C)O)C(=O)N[C@H]1CSSC[C@H](NC(=O)[C@H](CCCCN)NC(=O)[C@H](Cc3c[nH]c4ccccc34)NC(=O)CNC(=O)CNC(=O)[C@@H]3CCCN3C(=O)[C@H](CCCCN)NC(=O)[C@H](CCCCN)NC(=O)CNC1=O)C(=O)N[C@@H](CCCCN)C(=O)N[C@@H](CC(C)C)C(=O)N2 [Turgencin A] (H-GPKTKAACKMACKLATCGKKPGGWKCKLCELGCDAV-NH2; disulfide 8-33, 12-29, 17-26; N-terminus assumed)
Antimicrobial Activity (MIC) Bm (Bacillus megaterium): 0.5 µg/mL | Antimicrobial Activity (MIC) Ml (Micrococcus luteus): 8.0 µg/mL | Antimicrobial Activity (MIC) Ap (Aureobasidium pullulans): 92.6 µg/mL | Antimicrobial Activity (MIC) Ca [1]: 46.3 µg/mL | Antimicrobial Activity (MIC) Rh (Rhodotorula sp.): 23.2 µg/mL | Antimicrobial Activity (MIC) Bs [2]: 1.5 µg/mL | Antimicrobial Activity (MIC) Cg [3]: 1.5 µg/mL | Antimicrobial Activity (MIC) Sa [4]: 23.3 µg/mL | Antimicrobial Activity (MIC) Ec [5]: 3.0 µg/mL | Antimicrobial Activity (MIC) Pa [6]: 5.9 µg/mL
